smiles,measurement,value
"CC(C)(C)OC(=O)N[C@H]1CCCOC/C=C\[C@@H]2C[C@@]2(C(=O)NS(=O)(=O)C2CC2)NC(=O)[C@@H]2C[C@@H](OCc3ccccc3)CN2C1=O [Compound 5, (1S,4R,6S,14S,18R,7-cis)-18-benzyloxy-14-tert-butoxycarbonylamino-4-cyclopropanesulfonylaminocarbonyl-2,15-dioxo-3,16-diaza-10-oxatricyclo[14.3.0.04,6]nonadec-7-ene]",melting point,147 to 149 °C

# From US20080107625A1, “Inhibitors of Hepatitis C Virus” (Bristol-Myers Squibb Company, priority 2006, published 2008)
